Results reported in patent publication EP0512570B1, “Urea derivatives, processes for the preparation thereof and pharmaceutical composition comprising the same” (FUJISAWA PHARMACEUTICAL CO., LTD., priority 1991, dated 1992).

What follows are compounds tested against Acyl-CoA : cholesterol acyltransferase (ACAT) (assay: Acyl-CoA : cholesterol acyltransferase (ACAT) inhibitory activity). Details: enzyme from mucosal microsome fraction of small intestine of rabbits fed 2% cholesterol diet; [14C]oleoyl-CoA and endogenous cholesterol, 37°C for 5 minutes.
Type: biochemical, Japanese white rabbits
Protocol: Acyl-CoA : cholesterol acyltransferase (ACAT) inhibitory activity
ACAT activity was measured by the method of Heider et al. described in Journal of Lipid Research, Vol. 24, page 1127 (1983). The enzyme ACAT was prepared from the mucosal microsome fraction of the small intestine of male, 18-week old Japanese white rabbits which had been fed diet containing 2% cholesterol for 8 weeks. The inhibitory activity of compounds were calculated by measuring the amount of the labeled cholesterol ester produced from [¹⁴C]oleoyl-CoA and endogenous cholesterol as follows. [¹⁴C]oleoyl-CoA and microsome were incubated with test compounds at 37°C for 5 minutes. The reaction was stopped by the addition of chloroform-methanol (2:1, V/V). Cholesterol ester fraction in the chloroform-methanol extracts was isolated by thin-layer chromatography and was counted their label.

IC50 [nM] | Compound
73 | CCCCCCCN(Cc1cc2ccccc2o1)C(=O)Nc1c(F)cc(F)cc1F [Example 3 - (9), N-(Benzofuran-2-ylmethyl)-N-heptyl-N'-(2,4,6-trifluorophenyl)urea]
24 | O=C(Nc1c(F)cc(F)cc1F)N(Cc1oc2ccccc2c1-c1ccccc1)C1CCCCCC1 [Example 3 - (10), N-Cycloheptyl-N-(3-phenylbenzofuran-2-ylmethyl)-N'-(2,4,6-trifluorophenyl)urea]
6.6 | CCCCCCCN(Cc1oc2ccc(CC)cc2c1-c1ccc(Cl)cc1)C(=O)Nc1c(F)cc(F)cc1F [Example 3 - (35), N-[3-(4-Chlorophenyl)-5-ethylbenzofuran-2-ylmethyl]-N-heptyl-N'-(2,4,6-trifluorophenyl)urea]
8.8 | Cc1ccc2oc(CN(Cc3ccc(F)cc3)C(=O)Nc3c(F)cc(F)cc3F)c(-c3ccc(Cl)cc3)c2c1 [Example 5 - (7), N-[3-(4-Chlorophenyl)-5-methylbenzofuran-2-ylmethyl]-N-(4-fluorobenzyl)-N'-(2,4,6-trifluorophenyl)urea]
8.9 | Cc1ccc2oc(CN(Cc3ccco3)C(=O)Nc3c(F)cc(F)cc3F)c(-c3ccc(Br)cc3)c2c1 [Example 5 - (15), N-[3-(4-Bromophenyl)-5-methylbenzofuran-2-ylmethyl]-N-furfuryl-N'-(2,4,6-trifluorophenyl)urea]
7.4 | Cc1ccc2oc(CN(Cc3ccccc3)C(=O)Nc3c(F)cc(F)cc3F)c(-c3ccc(Cl)cc3)c2c1 [Example 6 - (2), N-Benzyl-N-[3-(4-chlorophenyl)-5-methylbenzofuran-2-ylmethyl]-N'-(2,4,6-trifluorophenyl)urea]
8.4 | Cc1ccc(-c2c(CN(Cc3ccccc3)C(=O)Nc3c(F)cc(F)cc3F)oc3ccc(Cl)cc23)cc1 [Example 6 - (6), N-Benzyl-N-[5-chloro-3-(4-methylphenyl)benzofuran-2-ylmethyl]-N'-(2,4,6-trifluorophenyl)urea]
4.4 | Cc1ccc(CN(Cc2oc3ccc(C)cc3c2-c2ccc(Cl)cc2)C(=O)Nc2c(F)cc(F)cc2F)cc1 [Example 6 - (7), N-[3-(4-Chlorophenyl)-5-methylbenzofuran-2-ylmethyl]-N-(4-methylbenzyl)-N'-(2,4,6-trifluorophenyl)urea]
